Results: paper PMC10251509, “Ultrafast Fragment Screening Using Photo-Hyperpolarized (CIDNP) NMR” (Journal of the American Chemical Society, 2023)

Key:
PIN1 [1] = molecular target: T1, PIN1 (Homo sapiens, UniProt Q13526); test: automated flow-through photo-CIDNP 1D 1H NMR screening against PIN1; type: binding; details: flow cell, 50 μM compound, 20 μM PIN1, 1.5 s irradiation
T1 construct: polyhistidine (N); made in house; host or cells: Escherichia coli BL21 (DE3)
Description: While several other hyperpolarization methods yield higher SNE and have been established for ligand binding detection, their implementation into a highly automated system remains challenging.[43],[44] Photo-CIDNP hyperpolarization presents the advantage of being generated in situ, at room temperature, in solution, simply by shining light on the sample. To illustrate the agility of the photo-CIDNP ligand screening approach, we designed a flow-through setup compatible with a cryoprobe (Figure 7C). The setup consists of a pump, an autosampler, a valve, and a 3D printed flow cell (Figure 7B,C), which comprises an optic fiber for light irradiation coming from a 1.6 W diode laser emitting at 450 nm from Thorlabs. […] (iv) While the flow is stopped, a photo-CIDNP ^1H 1D NMR spectrum is recorded, as described above. […]
Figure 7 Automated screening of PIN1 with Nmhare1.0 library using photo-CIDNP 1D ^1H NMR. […] The photo-CIDNP NMR experiment is then recorded with the pulse program triggering light irradiation, and subsequently performing the NMR experiment acquisition, the NMR experiment can comprehend different numbers of transients (NS) and indirect time dimension points (TD) that will increase the measurement time accordingly; finally, the sample is washed by restoring the flow in the fluidic connection. […]

PIN1 [2] = molecular target: T1, PIN1; test: photo-CIDNP 1D 1H NMR fragment screening (polarization ratio) against PIN1; type: binding
Experimental: The combination of these two effects yields the quenching of the photo-CIDNP hyperpolarized signal in the case of binding to a protein, as L decreases and R1,eff increases.
It is also overexpressed in many human cancer cells.[16] It is thus regarded as a potential drug target, and several studies attempted to discover hits and unravel the structure–activity relationship.[3],[4],[36] […] The NMR experiments were performed using single-scan NMR experiments, comprising light irradiation, an excitation pulse, and a water suppression scheme, as described previously.[13] Although each experiment was recorded in only 2 s, the limiting step was the sample tube exchange. Indeed, the optic fiber needed to be plugged into the tubes while changing the samples, which required ca. 15 s per tube using a house-made connector tightening the tube and the optic fiber with O-rings (Figure S2). Removing the sample from and bringing the new sample into the spectrometer requires an additional 30 s, and a shimming step must be performed for each new tube (30 s).
As proposed in the theoretical part, the photo-CIDNP traces were recorded in the presence and absence of PIN1. The peak intensity and chemical shifts were analyzed pairwise to identify the hits. […] The reference apo-PIN1 sample was spiked with 1.9 μL of DMSO to compensate for the DMSO that is introduced upon fragment addition, as the fragments are stored in stock solutions of 5 mM 90% DMSO-d6 and 10% D2O.
The laser used was a Thorlabs L450P1600MM, a diode laser emitting at 450 nm. The laser light was coupled (using appropriate coupling optics) into an optical fiber (Thorlabs, FG950UEC) of length 10 m and a diameter of 0.95 mm. The end of the fiber was inserted into the sample solution inside the 3 mm NMR glass tube to a depth of about 5 mm above the NMR coil region. The library QC and the control binding experiments for PIN1 were measured on a Bruker Avance III HD 600 MHz spectrometer equipped with a cryoprobe and SampleJet.

T1 sequence (Q13526 whole entry): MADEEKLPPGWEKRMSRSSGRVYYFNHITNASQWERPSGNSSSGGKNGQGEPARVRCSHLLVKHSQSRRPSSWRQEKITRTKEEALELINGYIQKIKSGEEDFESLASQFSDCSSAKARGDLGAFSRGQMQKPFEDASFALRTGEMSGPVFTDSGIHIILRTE

## Cc1cccc(-c2nc(C)c(C(=O)O)[nH]2)c1 [Compound 13, reference compound]
PIN1 [1]
  photo-CIDNP signal in presence vs absence of PIN1: signal reduction
PIN1 [2]; 50 μM ligand, ±25 μM PIN1, 20 μM fluorescein, 0 = total binding, 1 = no interaction, hit <0.8
  polarization ratio: 0.38
PIN1 [2]; low concentration: 20 μM ligand (compound 1: 5 μM), ±2 μM PIN1, single scan
  polarization ratio: 0.73
